The text below walks through data of a melting point compilation (Tetko et al.; mined from patent text by program, amines drawn as free bases though some values may be those of a salt).

Take `CCCCC(=O)c1c(-c2ccc3cc(OC(Cc4ccccc4)C(=O)O)ccc3c2)oc2ccccc12` (centres undefined): the melting point was 144 to 145 °C.

For `COC(=O)Nc1nc(-c2ccccc2)c(-c2nc3ccccc3c(=O)n2-c2ccccc2C)s1`, the melting point was above 275 °C.

Regarding `COc1ccc(-n2c(=O)n(C)c(=O)n(CC(C)(C)C)c2=O)cc1`, the melting point was 134 °C.

In turn, `CSc1nc(N)c(C(N)=S)s1` returned a melting point of 192 to 195 °C.

As to `O=C1CCCN1Cc1ccc(F)cc1`, the melting point was in the range of 37 to 38 °C.

`CCOC(=O)c1cnn(-c2ccc(F)cc2)c1C` gave a melting point of 48 to 49 °C.

In turn, `CN1CCN(c2ccc(C(=O)C(C)(C)N3CCN(C)CC3)cc2)CC1` registered a melting point of 133 to 136 °C.

On to `Fc1ccc2c(c1)Oc1ccccc1-c1nc(SC(F)(F)C(F)F)[nH]c1-2`, for which the melting point lay in the range of 172 to 175 °C.

Compound `O=C1Cc2cc(NC(=O)C(=O)N3CCC(CCc4ccccc4)CC3)ccc2N1` registered a melting point of 236 to 240 °C.

In the case of `CCCc1ccc(S(=O)(=O)c2ccc(F)cc2)cc1S(=O)(=O)NCCc1ccncc1`, the melting point was in the range of 160 to 162 °C.

In the case of `NS(=O)(=O)C=Cc1ccc(Cl)c(Cl)c1`, the melting point lay in the range of 127 to 130 °C.

The compound `Cc1cc(Cc2ccccc2)nc(Nc2ccc(-n3cnc(C)n3)c(F)c2)n1` showed a melting point of 183 to 185 °C.

`COC(=O)c1cc(C(C)(C)C)cc(C(C)(C)C)c1` registered a melting point of 52 to 52.5 °C.

The compound `CCCSc1cccc(-c2nc(=O)c3ccccc3s2)n1` returned a melting point of 124 to 125 °C.

With `COc1ccc(C(=O)NCCCSc2ccncc2)cc1`, the melting point lay within 121 to 122 °C.

The compound `CCOCc1nc2c(N)nc3cc(OCCCN4CCCC4=O)ccc3c2n1CCCCNC(=O)OC(C)(C)C` displayed a melting point of 134 to 136 °C.

In the case of `C[Si](C)(C)c1ccc(Cl)c(Cl)c1C(=O)O`, the melting point fell in the range of 117 to 119 °C.

For `CCCCCNC(=O)Nc1ccc(N(C)C)cc1C(=O)NCC1CCN(C(c2ccccc2)c2ccccc2)CC1`, the melting point is 218 °C.

For the compound `O=C(O)c1cnc2cc(OCc3ccccc3)c(OCc3ccccc3)cn2c1=O`, the melting point worked out at 208 °C.

The compound `O=C(O)c1ncc2[nH]c3ccccc3c2n1` displayed a melting point of 187 to 189 °C.

`O=C(Oc1c(F)c(F)c(F)c(F)c1F)c1ccccn1` yielded a melting point of 62 to 64 °C.

With `C=C(C)C(=O)NCC(=O)O`, the melting point was 104 °C.

As for `O=C1NC(=O)C(Cc2cc(O)c(O)c([N+](=O)[O-])c2)C(=O)N1`, the melting point lay within 263 to 266 °C.

`COc1ccc(C[C@H](NC(=O)OCc2ccccc2)C(=O)CCl)cc1` registered a melting point of 107 °C.

Compound `CCN(CC)CCCN1C(=O)NC(Cc2c[nH]c3ccc(Cl)cc23)C1=O` (centres undefined) gave a melting point of 186 °C.

As to `CN(C1CCN(CC(C)(C)O)CC1)S(=O)(=O)c1ccc(Nc2nccc(Nc3ccc(F)cc3)n2)cc1`, the melting point lay in the range of 216 to 217 °C.

As to `COc1ccc(CS(=O)(=O)c2cc(OC)c(OC)c(OC)c2)cc1`, the melting point lay in the range of 95 to 97 °C.

On to `FC(COC1CCC(Nc2ncnc3[nH]ncc23)CC1F)c1ccccc1` (centres undefined), for which the melting point fell in the range of 204 to 205 °C.

`O=C(c1cccs1)c1cnn2c(-c3cccc(NC/C=C/c4ccccc4)c3)ccnc12` displayed a melting point of 123 to 125 °C.

`Cc1cc(-c2ncn(Cc3ccc(F)cc3)n2)sc1C(=O)NCc1ccccc1` yielded a melting point of 128 to 130 °C.

In turn, `O=C(Nc1ccc(C(F)(F)F)cc1)Nc1cccc(Oc2ccccc2)c1` showed a melting point of 178 to 181 °C.

`C[C@@H](n1cnc2cc(Br)c(F)cc2c1=O)[C@](O)(Cn1cncn1)c1ccc(F)cc1F` yielded a melting point of 185 to 186 °C.

`CCc1cccc(C)c1N1C(=O)C=CC1=O` had a melting point of 84.5 to 85 °C.

Take `CCCCCCc1ccc(-c2ncc(C#N)cn2)cc1`: the melting point was in the range of 86.3 to 87.8 °C.

For `C=Cn1cc(C(=O)O)c(=O)c2cc(F)c(N3CCC(NC)C3)nc21` (centres undefined), the melting point was 160 to 161 °C.

For the compound `CCCOC(Cc1ccc(OCCc2nc(-c3ccccc3)oc2C)c2ccsc12)C(=O)O` (centres undefined), the melting point is 106 to 109 °C.

`c1ccc2c(NCCCCNc3nccc4ccccc34)nccc2c1` had a melting point of 189 to 192 °C.

`CN(C)CCOc1cc(NS(=O)(=O)c2ccc(Oc3cccc(Cl)c3C#N)cc2)ccc1Cl`: the melting point was in the range of 103 to 106 °C.

`CCOC(=O)c1cn(C)c2ccc(C(=O)c3c(C)c(OC)c4ccccn34)cc2c1=O` displayed a melting point of 258 °C.

`COc1cc2oc(=O)c3c(c2cc1N)CCN(CC(C)=O)C3` registered a melting point of 178 to 180 °C.

Regarding `CCOC(=O)c1cn(C)nc1Nc1ccc(F)cc1[N+](=O)[O-]`, the melting point is 162 °C.

With `ON=C(Cl)c1ccc(C(Cl)=NO)cc1`, the melting point was in the range of 178 to 180 °C.

As for `C=CCN(C#N)c1c(Cl)ccc2nsnc12`, the melting point was in the range of 62 to 63 °C.

For `CC(C)(CONCc1ccccc1Cl)C(=O)O`, the melting point was 78 to 80 °C.

`CC(C)(C)OC(=O)N1CCC[C@H](COc2ccccc2O)C1` gave a melting point of 98 to 101 °C.

`CCCCCOc1ccc(CCOc2ccc(/C=C(\OCC)C(=O)O)cc2OCCCC)cc1Cl`: the melting point came to 95 °C.

On to `Brc1ccc2c(c1)COCc1cc(Br)ccc1-2`, for which the melting point lay within 129 to 131 °C.

For the compound `O=c1c(NCCCN(Cc2cccs2)c2ccccn2)c(NCc2ccncc2)c1=O`, the melting point lay within 189 to 192 °C.

Compound `Cc1nc(C)n(-c2cc(C)c3[nH]c(=O)ccc3c2)c1C#N` displayed a melting point of 334 to 337 °C.

Compound `CC(=O)c1c(-c2ccc(OCCBr)c3ccccc23)oc2ccccc12` displayed a melting point of 115 to 117 °C.

`CCN(CC)CCOc1nc2ccccc2n(-c2ccc(Cl)cc2)c1=O` yielded a melting point of 165 to 167 °C.

In turn, `CN1C(=O)Nc2c(Cl)cc(Cl)cc2C12NC(=O)NC2=O` (centres undefined) registered a melting point above 280 °C.

In turn, `O=C1Cc2cc(Cl)cc(C(=O)c3ccccc3)c2N1` registered a melting point of 186 to 187 °C.

In turn, `CC(=O)N1CCc2cc(N)cnc21` displayed a melting point of 193 to 195 °C.

Consider `CCc1n[nH]c(=O)c2c(C)ncn12`, for which the melting point is 175 to 178 °C.

Compound `N#Cc1ccc2ccc3ccccc3c(=O)c2c1` gave a melting point of 176 to 177 °C.

The compound `Cn1cc([C@H]2CC[C@@H](N3CCN(c4cc(C(=O)O)cc5cccnc45)CC3)CC2)c2cc(C#N)ccc21` showed a melting point of 230 °C.

Take `CCc1c2n(c3ccccc13)C(=O)C(=Cc1ncn(C(c3ccccc3)(c3ccccc3)c3ccccc3)c1C)CC2`: the melting point was 217 to 220 °C.

Regarding `CCC1CC(=O)C(C(=O)NS(=O)(=O)c2ccc(C)cc2)C(=O)C1` (centres undefined), the melting point was in the range of 86 to 87 °C.

`COc1ccc(C(=O)Cc2c(Cl)cccc2Cl)c2c1OCCO2` displayed a melting point of 154 to 155 °C.

`Cc1ccc2c(c1C)OC(C(=O)O)C2` (centres undefined) yielded a melting point of 182 °C.

On to `CN1[C@@H]2CC[C@H]1[C@H](CO)[C@H](c1ccc(Cl)c(Cl)c1)C2`, for which the melting point was in the range of 81 to 86 °C.

In turn, `O=C(NCc1ccccc1N1CCNCC1)c1cnc2c(-c3cccc(Cl)c3)cnn2c1` had a melting point of 185 to 188 °C.

For `O=C(O)COc1ccc2sc3ccccc3c(=O)c2c1`, the melting point was in the range of 207 to 212 °C.

`COc1ccc2c(-c3ccccc3)c(C(=O)c3ccccc3OC)sc2c1`: the melting point fell in the range of 111 to 112 °C.

The compound `COc1ccc(CN(C)CCc2ccc(NC(=O)c3cccc4c(=O)c5ccccc5sc34)cc2)cc1OC` registered a melting point of 180 °C.

`Cc1nc(-c2cc(C)c(OCCCc3cccnc3)c(C)c2)no1`: the melting point lay in the range of 46 to 49 °C.

In the case of `CN(C(=O)Nc1ccc(Cl)c(Cl)c1)S(=O)(=O)CCl`, the melting point is 119 °C.

`CCNC(=O)c1ccc(F)c(F)c1` returned a melting point of 94.1 to 96.2 °C.

As to `O=C(NCc1ccccn1)Nc1cc(-n2cc(-c3ccccc3)oc2=O)ccn1`, the melting point lay within 208 to 209 °C.

`CC(C)Cc1ccc(C(Nc2cccc(C(=O)n3cc(CCCC(=O)O)c4ccccc43)c2)c2ccc(CC(C)C)cc2)cc1` yielded a melting point of 74.8 °C.

Compound `COC(=O)CCCc1cc2nc(Cl)ccc2n1S(=O)(=O)c1ccc(OC(F)(F)F)cc1` had a melting point of 109 °C.

The compound `COCc1cnc2c(NC(=O)c3c(Cl)cccc3Cl)cccc2c1N1CCN(C)C1=O` registered a melting point of 199 to 201 °C.

As for `Cc1cccc(-c2nccc3nc(N)nn23)c1`, the melting point lay within 125 to 126 °C.

`O=c1[nH]c2ccc(C(F)(F)F)cc2c(-c2cc(Cl)ccc2O)c1CO` had a melting point above 250 °C.

`CC(O)C1C(=O)NC1CC(=O)OCc1ccccc1` (mixture of isomers) came in with a melting point of 67.5 to 68.5 °C.

With `O=C(Nc1ccc(Oc2ccc(N3CCC(O)CC3)cc2)cc1)c1ccc(Cl)c(Cl)c1`, the melting point lay within 178 to 180 °C.

The compound `CCCCCOc1cc2c(cc1OCc1cccc(C(=O)OC)c1)C(=O)CC2` yielded a melting point of 110 to 111 °C.

Compound `O=C(O)C(Cc1ccccc1)Oc1ccc(-c2ccc(-c3c(Cc4ccccc4)oc4ccccc34)cc2)cc1` (centres undefined) registered a melting point of 164 to 166 °C.

Compound `CCON=C1CN(c2nc3c(cc2F)c(=O)c(C(=O)O)cn3C2CC2)CC12CN(C(=O)OC(C)(C)C)C2` had a melting point of 261 to 262 °C.

With `CN(C(=O)c1ccc2nonc2c1)C1CCSCC1`, the melting point is 155 to 156 °C.

With `Cc1[nH]cnc1CSCCNc1[nH]ccc1[N+](=O)[O-]`, the melting point lay in the range of 161 to 162 °C.

Regarding `Cc1ccc2c3c(ccc2n1)OC[C@H](CNC[C@H]1CCc2c(c4cc(F)ccc4n2C)C1)O3`, the melting point is 127 to 129 °C.

Consider `O=C1C=C(c2ccc[nH]2)C(=O)c2ccccc21`, for which the melting point was 155 to 158 °C.

As to `CN(C)S(=O)(=O)c1ccc2ccc3ccccc3c(=O)c2c1`, the melting point is 130 to 136 °C.

Consider `Clc1ccc(-c2nc(COCc3ccccc3)ns2)nn1`, for which the melting point was in the range of 109 to 110 °C.

Compound `CC(C)(C)C(=O)Oc1ccc(CCNc2nc(N)n3nc(-c4ccco4)nc3n2)cc1` registered a melting point of 208 to 210 °C.

As for `NC(=O)N(O)CC#CCOc1ccccc1`, the melting point fell in the range of 97 to 99 °C.

The compound `CCOCc1nc2c(N)nc3ccccc3c2n1CC(C)(C)OCCS(=O)(=O)c1ccccc1` registered a melting point of 187 to 189 °C.

The term melting point denotes the temperature, or range, at which the solid turns liquid.
